# In ChEMBL document CHEMBL4043213, “β-Arrestin biased dopamine D2 receptor partial agonists: Synthesis and pharmacological evaluation” (Bioorg Med Chem, 2017):
# Legend:
# D(2) dopamine receptor [1] = biological target: T1, D(2) dopamine receptor (Homo sapiens, UniProt P14416); experiment: biochemical; assay type: cell-based
# Target sequence in this assay (P14416 whole entry): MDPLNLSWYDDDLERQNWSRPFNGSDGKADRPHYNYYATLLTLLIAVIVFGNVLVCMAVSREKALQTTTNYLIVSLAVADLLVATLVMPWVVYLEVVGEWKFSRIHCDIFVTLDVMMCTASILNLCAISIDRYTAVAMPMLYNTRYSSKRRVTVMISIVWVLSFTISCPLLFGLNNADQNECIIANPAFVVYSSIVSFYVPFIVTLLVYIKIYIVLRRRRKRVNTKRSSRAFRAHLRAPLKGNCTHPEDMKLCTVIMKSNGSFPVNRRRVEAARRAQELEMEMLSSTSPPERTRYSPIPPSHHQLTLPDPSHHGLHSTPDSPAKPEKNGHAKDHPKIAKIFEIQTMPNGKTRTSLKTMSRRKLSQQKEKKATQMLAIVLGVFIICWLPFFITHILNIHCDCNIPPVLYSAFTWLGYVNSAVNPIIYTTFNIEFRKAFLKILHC
# Description: Displacement of [3H]spiperone from human D2LR expressed in CHO cell membranes
# D(2) dopamine receptor [2] = biological target: T1, D(2) dopamine receptor; experiment: biochemical; assay type: cell-based; remark: listed apart in the source
# Target sequence in this assay (P14416 whole entry): as above
# Description: Displacement of [3H]spiperone from human D2SR expressed in CHO cell membranes
# D(4) dopamine receptor = biological target: T2, D(4) dopamine receptor (Homo sapiens, UniProt P21917); experiment: biochemical; assay type: cell-based
# T2 sequence (P21917 whole entry): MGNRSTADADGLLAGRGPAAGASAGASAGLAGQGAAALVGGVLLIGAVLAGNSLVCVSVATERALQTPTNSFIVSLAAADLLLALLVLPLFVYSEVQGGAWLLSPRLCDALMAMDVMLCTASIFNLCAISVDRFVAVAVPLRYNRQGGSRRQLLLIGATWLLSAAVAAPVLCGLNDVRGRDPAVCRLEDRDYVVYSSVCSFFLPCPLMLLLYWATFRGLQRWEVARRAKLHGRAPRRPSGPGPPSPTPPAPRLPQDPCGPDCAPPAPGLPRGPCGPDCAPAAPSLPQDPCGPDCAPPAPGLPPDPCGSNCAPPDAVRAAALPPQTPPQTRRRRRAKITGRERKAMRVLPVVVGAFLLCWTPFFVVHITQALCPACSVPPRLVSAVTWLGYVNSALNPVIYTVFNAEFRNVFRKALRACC
# Description: Displacement of [3H]spiperone from human D4R expressed in CHO cell membranes
# [3] = Displacement of [3H]prazosin from […] receptor in porcine cerebral cortex homogenates; assay type: tissue-based, Sus scrofa
# D(2) dopamine receptor [4] = biological target: T1, D(2) dopamine receptor; assay type: cell-based, HEK293
# Target sequence in this assay (P14416 whole entry): as the sequence (P14416 whole entry) above
# Description: Agonist activity at human D2SR expressed in HEK293 cells incubated for 5 hrs by beta-Arrestin 2 recruitment assay
# D(2) dopamine receptor [5] = biological target: T1, D(2) dopamine receptor; assay type: ADME, cell-based; settings: hek293
# Target sequence in this assay (P14416 whole entry, looked up, change not shown): as the sequence (P14416 whole entry) above
# Description: Agonist activity at human D2SR expressed in HEK293 cell membranes co-expressing PTX insensitive variant of Galphao1 incubated for 30 mins by [35S]GTP-gammaS binding assay
# D(2) dopamine receptor [6] = biological target: T1, D(2) dopamine receptor; settings: hek293, 0.5 h, 10 µM
# Target sequence in this assay (P14416 whole entry, looked up, change not shown): as the sequence (P14416 whole entry) above
# Description: Agonist activity at human D2SR expressed in HEK293 cell membranes co-expressing PTX insensitive variant of Galphao1 at 10 uM incubated for 30 mins by [35S]GTP-gammaS binding assay relative to quinpirole
# D(1A) dopamine receptor = D(1A) dopamine receptor (Homo sapiens, UniProt P21728); experiment: biochemical
# Description: Displacement of [3H]SCH23390 from human D1R expressed in HEK293T cell membranes
# D(3) dopamine receptor = D(3) dopamine receptor (Homo sapiens, UniProt P35462); experiment: biochemical
# Description: Displacement of [3H]spiperone from human D3R expressed in CHO cell membranes
# D(1B) dopamine receptor [7] = biological target: T3, D(1B) dopamine receptor (Homo sapiens, UniProt P21918); experiment: biochemical
# Description: (§1) Displacement of [3H]SCH23390 from human D5R expressed in HEK293T cell membranes
# [8] = biological target: 5-hydroxytryptamine receptor 2A (Homo sapiens, UniProt P28223); experiment: biochemical
# Description: Displacement of [3H]ketanserin from human 5-HT2AR expressed in HEK293T cell membranes1
# D(1B) dopamine receptor [9] = biological target: T3, D(1B) dopamine receptor; settings: hek-293t
# Description: as §1
# D(1A) dopamine receptor, sequence (P21728 whole entry): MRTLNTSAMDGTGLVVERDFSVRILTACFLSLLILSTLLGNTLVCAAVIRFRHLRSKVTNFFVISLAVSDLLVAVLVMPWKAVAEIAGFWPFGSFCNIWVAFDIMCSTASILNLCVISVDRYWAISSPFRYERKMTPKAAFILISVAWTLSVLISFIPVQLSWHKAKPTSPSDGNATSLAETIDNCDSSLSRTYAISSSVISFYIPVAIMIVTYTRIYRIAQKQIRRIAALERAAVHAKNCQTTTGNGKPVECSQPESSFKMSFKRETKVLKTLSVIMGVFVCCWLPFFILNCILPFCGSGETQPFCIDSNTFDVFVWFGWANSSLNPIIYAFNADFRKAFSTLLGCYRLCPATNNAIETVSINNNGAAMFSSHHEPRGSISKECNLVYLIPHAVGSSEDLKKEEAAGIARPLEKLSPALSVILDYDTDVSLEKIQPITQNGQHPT
# D(3) dopamine receptor, sequence (P35462 whole entry): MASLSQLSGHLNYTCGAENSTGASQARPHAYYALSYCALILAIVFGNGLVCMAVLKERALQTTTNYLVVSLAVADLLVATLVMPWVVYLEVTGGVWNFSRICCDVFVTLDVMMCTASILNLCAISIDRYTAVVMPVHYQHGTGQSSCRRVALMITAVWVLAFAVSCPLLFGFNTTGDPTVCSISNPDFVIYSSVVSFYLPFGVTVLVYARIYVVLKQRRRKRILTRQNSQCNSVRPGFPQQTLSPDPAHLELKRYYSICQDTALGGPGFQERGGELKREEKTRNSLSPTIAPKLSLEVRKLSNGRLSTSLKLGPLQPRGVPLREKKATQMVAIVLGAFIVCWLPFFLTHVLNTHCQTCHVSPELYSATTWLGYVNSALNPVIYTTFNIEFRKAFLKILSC
# T3 sequence (P21918 whole entry): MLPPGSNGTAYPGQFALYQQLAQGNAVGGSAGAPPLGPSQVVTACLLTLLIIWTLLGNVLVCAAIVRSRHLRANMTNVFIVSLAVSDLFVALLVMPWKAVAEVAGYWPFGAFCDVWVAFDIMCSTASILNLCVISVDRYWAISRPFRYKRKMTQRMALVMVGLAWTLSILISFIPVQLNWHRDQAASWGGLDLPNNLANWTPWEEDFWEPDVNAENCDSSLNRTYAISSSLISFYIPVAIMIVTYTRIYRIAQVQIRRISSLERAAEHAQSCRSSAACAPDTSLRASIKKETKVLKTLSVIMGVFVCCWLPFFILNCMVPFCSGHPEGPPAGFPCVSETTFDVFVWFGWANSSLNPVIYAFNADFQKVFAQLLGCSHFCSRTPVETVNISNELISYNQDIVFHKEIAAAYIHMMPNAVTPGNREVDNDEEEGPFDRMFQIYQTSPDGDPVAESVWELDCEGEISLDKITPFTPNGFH
# 5-hydroxytryptamine receptor 2A, sequence (P28223 whole entry): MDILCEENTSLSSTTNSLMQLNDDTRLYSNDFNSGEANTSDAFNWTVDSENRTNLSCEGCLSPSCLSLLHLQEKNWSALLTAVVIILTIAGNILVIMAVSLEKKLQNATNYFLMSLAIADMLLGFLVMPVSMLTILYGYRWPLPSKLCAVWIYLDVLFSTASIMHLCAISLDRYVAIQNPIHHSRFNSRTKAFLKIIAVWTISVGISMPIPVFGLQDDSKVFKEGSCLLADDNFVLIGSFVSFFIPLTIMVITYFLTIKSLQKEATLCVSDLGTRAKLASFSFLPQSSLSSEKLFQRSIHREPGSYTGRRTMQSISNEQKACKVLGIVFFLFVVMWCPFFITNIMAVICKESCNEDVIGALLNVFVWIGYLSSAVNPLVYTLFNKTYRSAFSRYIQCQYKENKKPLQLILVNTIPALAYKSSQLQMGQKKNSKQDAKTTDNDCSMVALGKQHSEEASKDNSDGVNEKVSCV
Compound,Ki (D(2) dopamine receptor [1]),Ki (D(2) dopamine receptor [2]),Ki (D(4) dopamine receptor),Ki [3],EC50 (D(2) dopamine receptor [4]),EC50 (D(2) dopamine receptor [5]),Emax (D(2) dopamine receptor [6]),Ki (D(1A) dopamine receptor),Ki (D(3) dopamine receptor),Ki (D(1B) dopamine receptor [7]),Ki [8],Ki (D(1B) dopamine receptor [9])
O=Cc1cnn2ccc(OCCCCN3CCN(c4ccc(O)c5c4OCC(=O)N5)CC3)cc12,1.1 nM,0.73 nM,10 nM,11 nM,68 nM,> 1000 nM,15%,12000 nM,1.2 nM,7700 nM,2900 nM,–
O/N=C/c1cnn2ccc(OCCCCN3CCN(c4ccc(O)c5c4OCCO5)CC3)cc12 (stereo in doubt; 9f),1.7 nM,1.1 nM,62 nM,89 nM,–,–,–,> 20000 nM,35 nM,–,980 nM,> 20000 nM
O=Cc1cnn2ccc(OCCCCN3CCN(c4ccc(O)c5c4OCCO5)CC3)cc12,5.7 nM,2.9 nM,130 nM,160 nM,–,–,–,11000 nM,24 nM,> 20000 nM,1000 nM,–
CCCN(CCC)CCc1cccc2c1CC(=O)N2 [ROPINIROLE],–,–,–,–,–,330 nM,–,–,–,–,–,–
O=C1COc2c(N3CCNCC3)ccc(O)c2N1,8300 nM,1800 nM,440 nM,4200 nM,–,–,–,> 20000 nM,160 nM,> 20000 nM,> 20000 nM,–
CCCN1CCN(c2ccc(O)c3[nH]c(=O)ccc23)CC1,1900 nM,480 nM,7600 nM,> 15000 nM,–,–,–,> 20000 nM,420 nM,> 20000 nM,> 20000 nM,–
CCCN1CCN(c2ccc(O)c3c2OCCO3)CC1,> 15000 nM,5700 nM,> 20000 nM,> 15000 nM,–,–,–,> 15000 nM,2800 nM,> 20000 nM,> 20000 nM,–
CN1CCN(c2ccc(O)c3c2OCC(=O)N3)CC1,630 nM,200 nM,59 nM,1500 nM,300 nM,–,–,> 20000 nM,48 nM,> 20000 nM,> 20000 nM,–
O=c1ccc2c(N3CCN(CCCCOc4ccn5ncc(/C=N/O)c5c4)CC3)ccc(O)c2[nH]1 (stereo in doubt; 9b),1.6 nM,0.54 nM,31 nM,39 nM,46 nM,55 nM,–,> 20000 nM,2.9 nM,–,5400 nM,> 20000 nM
O=C1COc2c(N3CCCNCC3)ccc(O)c2N1,14000 nM,8900 nM,> 15000 nM,> 20000 nM,–,–,–,> 20000 nM,510 nM,> 20000 nM,> 20000 nM,–
CN1CCCN(c2ccc(O)c3c2OCC(=O)N3)CC1,6400 nM,3400 nM,4900 nM,13000 nM,–,–,–,> 20000 nM,42 nM,> 20000 nM,6400 nM,–
